{"source": "ChEMBL document CHEMBL1201862", "about": "“PubChem BioAssay data set” (2004)", "key": {"Estrogen receptor beta": {"molecular_target": "Estrogen receptor beta (Homo sapiens, UniProt Q92731)", "sequence (Q92731 whole entry)": "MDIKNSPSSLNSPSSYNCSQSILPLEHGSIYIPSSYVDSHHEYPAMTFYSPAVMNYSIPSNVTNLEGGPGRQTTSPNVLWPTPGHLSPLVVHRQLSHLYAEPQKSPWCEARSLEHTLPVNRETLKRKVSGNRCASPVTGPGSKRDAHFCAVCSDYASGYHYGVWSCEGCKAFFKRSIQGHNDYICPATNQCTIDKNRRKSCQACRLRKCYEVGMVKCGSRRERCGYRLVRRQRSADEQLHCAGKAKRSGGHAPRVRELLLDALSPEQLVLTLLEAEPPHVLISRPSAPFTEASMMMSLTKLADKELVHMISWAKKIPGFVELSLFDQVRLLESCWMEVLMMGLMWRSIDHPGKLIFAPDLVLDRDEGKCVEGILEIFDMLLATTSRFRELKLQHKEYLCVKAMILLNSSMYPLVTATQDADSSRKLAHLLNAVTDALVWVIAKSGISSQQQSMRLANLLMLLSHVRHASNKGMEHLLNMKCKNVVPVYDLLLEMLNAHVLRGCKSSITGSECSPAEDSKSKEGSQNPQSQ"}, "[1]": {"test": "insulin promoter down-regulators in MIN6 cells, imaging, high-content screening, mouse beta cells (AID 1628)", "type": "functional"}, "Streptokinase A": {"molecular_target": "T1, Streptokinase A (Streptococcus pyogenes serotype M1, UniProt P10520)", "T1 sequence (P10520 whole entry)": "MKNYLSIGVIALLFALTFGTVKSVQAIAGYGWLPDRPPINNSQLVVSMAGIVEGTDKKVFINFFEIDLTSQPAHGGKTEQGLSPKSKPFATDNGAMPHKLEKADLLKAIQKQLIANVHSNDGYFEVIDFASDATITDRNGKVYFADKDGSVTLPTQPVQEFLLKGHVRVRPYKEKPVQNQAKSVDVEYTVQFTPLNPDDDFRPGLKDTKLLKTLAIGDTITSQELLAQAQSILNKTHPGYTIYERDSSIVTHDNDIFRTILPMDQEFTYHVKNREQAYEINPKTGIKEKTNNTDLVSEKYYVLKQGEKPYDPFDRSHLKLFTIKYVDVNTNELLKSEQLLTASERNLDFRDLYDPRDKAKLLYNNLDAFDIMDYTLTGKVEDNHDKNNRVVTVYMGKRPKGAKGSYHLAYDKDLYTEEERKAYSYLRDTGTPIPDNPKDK", "test": "S. pyogenes streptokinase expression inhibitors, potency, dose response, plasminogen activation absorbance, OD405 (AID 1914);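 note: secreted streptokinase activity via plasminogen activation per viability signal from cell pellet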", "type": "functional, Streptococcus pyogenes M1 GAS"}, "[2]": {"molecular_target": "T2, Replicative DNA helicase DnaB (Mycobacterium tuberculosis, UniProt P9WMR3)", "T2 sequence (P9WMR3 whole entry)": "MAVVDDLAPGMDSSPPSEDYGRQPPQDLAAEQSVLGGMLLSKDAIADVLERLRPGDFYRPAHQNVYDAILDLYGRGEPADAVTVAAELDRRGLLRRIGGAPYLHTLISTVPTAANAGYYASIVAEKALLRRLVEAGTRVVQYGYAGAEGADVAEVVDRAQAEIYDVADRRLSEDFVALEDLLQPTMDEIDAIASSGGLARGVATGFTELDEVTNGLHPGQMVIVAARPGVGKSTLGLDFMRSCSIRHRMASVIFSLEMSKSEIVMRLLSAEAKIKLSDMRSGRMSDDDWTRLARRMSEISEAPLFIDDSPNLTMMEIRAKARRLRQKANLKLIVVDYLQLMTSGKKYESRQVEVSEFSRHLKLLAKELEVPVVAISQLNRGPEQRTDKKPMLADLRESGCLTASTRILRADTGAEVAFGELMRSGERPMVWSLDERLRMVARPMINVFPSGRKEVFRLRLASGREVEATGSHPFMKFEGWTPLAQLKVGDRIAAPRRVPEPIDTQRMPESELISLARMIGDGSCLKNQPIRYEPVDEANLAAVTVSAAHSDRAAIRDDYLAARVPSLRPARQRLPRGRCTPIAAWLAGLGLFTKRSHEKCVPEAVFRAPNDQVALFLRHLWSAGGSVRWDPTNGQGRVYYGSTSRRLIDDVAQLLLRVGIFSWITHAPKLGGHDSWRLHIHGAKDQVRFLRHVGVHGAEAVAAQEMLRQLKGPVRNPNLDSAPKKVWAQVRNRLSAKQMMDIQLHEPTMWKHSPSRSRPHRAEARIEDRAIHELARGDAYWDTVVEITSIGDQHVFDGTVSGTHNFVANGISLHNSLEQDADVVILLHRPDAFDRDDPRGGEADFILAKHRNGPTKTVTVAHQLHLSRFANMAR", "test": "DnaB intein splicing inhibitors, dose response, biochemical, cell-free fluorescence (AID 449749)", "type": "functional"}}, "note": "The source made the active and inactive calls."}
{"smiles": "COc1ccc(C(=O)c2c(C(F)(F)F)oc3c2C(=O)c2ccccc2C3=O)cc1", "values": [{"measurement": "IC50", "setting": "Estrogen receptor beta", "value": "> 50 µM (not active)"}, {"measurement": "IC50", "setting": "[1]", "value": "3.05 µM (active)"}, {"measurement": "EC50", "setting": "Streptokinase A", "value": "> 150 µM (not active)"}, {"measurement": "AC50", "setting": "[2]", "value": "0.164 µM (active)"}]}
